# Source: ChEMBL document CHEMBL3885881, “DrugMatrix”
# Species on record: Rattus norvegicus
# Experiment: DrugMatrix - Regimen: Daily Repeat
# Assay type: toxicity, organism-based, Sprague-Dawley
# Set-up: regimen Daily Repeat, gender Male, age 6-8 weeks
# Conditions: in vivo, po, route oral GAVAGE, vehicle 100 % WATER; for ABSOLUTE BASOPHIL / ABSOLUTE EOSINOPHIL / ABSOLUTE LYMPHOCYTE / ABSOLUTE MONOCYTE / ABSOLUTE SEGMENTED NEUTROPHIL / BASOPHIL / EOSINOPHIL / ERYTHROCYTE COUNT / HEMATOCRIT / HEMOGLOBIN / LEUKOCYTE COUNT / LYMPHOCYTE / MEAN CORPUSCULAR HEMOGLOBIN / MEAN CORPUSCULAR HEMOGLOBIN CONCENTRATION / MEAN CORPUSCULAR VOLUME / MONOCYTE / NEUTROPHIL / NUCLEATED RED BLOOD CELLS / PLATELET COUNT: tissue Blood; for ALANINE AMINOTRANSFERASE / ALBUMIN / ALKALINE PHOSPHATASE / ASPARTATE AMINOTRANSFERASE / BLOOD UREA NITROGEN / CARBON DIOXIDE / CHLORIDE / CHOLESTEROL / CREATINE PHOSPHOKINASE / CREATININE / GLUCOSE / LACTATE DEHYDROGENASE / LIPASE / PHOSPHORUS / POTASSIUM / SODIUM / TOTAL BILIRUBIN / TOTAL PROTEIN / URIC ACID: tissue Plasma
# [1] = 120 mg/kg, 120 h, dose level Low, time 5 day
# [2] = 1200 mg/kg, 72 h, dose level High, time 3 day
# [3] = 1200 mg/kg, 120 h, dose level High, time 5 day
structure (smiles),measurement,setting,value
Cc1onc(-c2ccccc2Cl)c1C(=O)N[C@@H]1C(=O)N2[C@@H]1SC(C)(C)[C@@H]2C(=O)O [CLOXACILLIN],ABSOLUTE BASOPHIL,[1],0 CELLS/uL
same,ABSOLUTE EOSINOPHIL,[1],0 CELLS/uL
same,ABSOLUTE LYMPHOCYTE,[1],14591.67 CELLS/uL
same,ABSOLUTE MONOCYTE,[1],338 CELLS/uL
same,ABSOLUTE SEGMENTED NEUTROPHIL,[1],1970.33 CELLS/uL
same,BASOPHIL,[1],0%
same,EOSINOPHIL,[1],0%
same,ERYTHROCYTE COUNT,[1],5.42 x10E6/uL
same,HEMATOCRIT,[1],34.13%
same,HEMOGLOBIN,[1],13.57 G/DL
same,LEUKOCYTE COUNT,[1],16.9 x10E3/uL
same,LYMPHOCYTE,[1],86.33%
same,MEAN CORPUSCULAR HEMOGLOBIN,[1],25.07 pg
same,MEAN CORPUSCULAR HEMOGLOBIN CONCENTRATION,[1],39.73 G/DL
same,MEAN CORPUSCULAR VOLUME,[1],62.97 fL
same,MONOCYTE,[1],2%
same,NEUTROPHIL,[1],11.67%
same,NUCLEATED RED BLOOD CELLS,[1],0 /100WBC
same,PLATELET COUNT,[1],1237.33 x10E3/uL
same,ALANINE AMINOTRANSFERASE,[1],51.33 u/L
same,ALBUMIN,[1],4.13 G/DL
same,ALKALINE PHOSPHATASE,[1],349.67 u/L
same,ASPARTATE AMINOTRANSFERASE,[1],77.33 u/L
same,BLOOD UREA NITROGEN,[1],15.67 mg/dL
same,CARBON DIOXIDE,[1],27 mmol/L
same,CHLORIDE,[1],101.33 MEQ/L
same,CHOLESTEROL,[1],69.67 mg/dL
same,CREATINE PHOSPHOKINASE,[1],381.33 u/L
same,CREATININE,[1],0.14 mg/dL
same,GLUCOSE,[1],149.67 mg/dL
same,LACTATE DEHYDROGENASE,[1],190 u/L
same,LIPASE,[1],8.33 u/L
same,PHOSPHORUS,[1],11.87 mg/dL
same,POTASSIUM,[1],6.69 MEQ/L
same,SODIUM,[1],143.53 MEQ/L
same,TOTAL BILIRUBIN,[1],0.13 mg/dL
same,TOTAL PROTEIN,[1],5.77 G/DL
same,URIC ACID,[1],1.5 mg/dL
same,ABSOLUTE BASOPHIL,[2],0 CELLS/uL
same,ABSOLUTE EOSINOPHIL,[2],0 CELLS/uL
same,ABSOLUTE LYMPHOCYTE,[2],9313 CELLS/uL
same,ABSOLUTE MONOCYTE,[2],140.33 CELLS/uL
same,ABSOLUTE SEGMENTED NEUTROPHIL,[2],1013.33 CELLS/uL
same,BASOPHIL,[2],0%
same,EOSINOPHIL,[2],0%
same,ERYTHROCYTE COUNT,[2],4.48 x10E6/uL
same,HEMATOCRIT,[2],28.27%
same,HEMOGLOBIN,[2],11.27 G/DL
same,LEUKOCYTE COUNT,[2],10.47 x10E3/uL
same,LYMPHOCYTE,[2],90%
same,MEAN CORPUSCULAR HEMOGLOBIN,[2],25.37 pg
same,MEAN CORPUSCULAR HEMOGLOBIN CONCENTRATION,[2],39.93 G/DL
same,MEAN CORPUSCULAR VOLUME,[2],63.4 fL
same,MONOCYTE,[2],1%
same,NEUTROPHIL,[2],9%
same,NUCLEATED RED BLOOD CELLS,[2],0 /100WBC
same,PLATELET COUNT,[2],825.33 x10E3/uL
same,ALANINE AMINOTRANSFERASE,[2],72 u/L
same,ALBUMIN,[2],4.03 G/DL
same,ALKALINE PHOSPHATASE,[2],414 u/L
same,ASPARTATE AMINOTRANSFERASE,[2],89.67 u/L
same,BLOOD UREA NITROGEN,[2],15 mg/dL
same,CARBON DIOXIDE,[2],22.33 mmol/L
same,CHLORIDE,[2],102.67 MEQ/L
same,CHOLESTEROL,[2],86.33 mg/dL
same,CREATINE PHOSPHOKINASE,[2],306 u/L
same,CREATININE,[2],0.16 mg/dL
same,GLUCOSE,[2],144.67 mg/dL
same,LACTATE DEHYDROGENASE,[2],170 u/L
same,LIPASE,[2],10.67 u/L
same,PHOSPHORUS,[2],12.23 mg/dL
same,POTASSIUM,[2],6.82 MEQ/L
same,SODIUM,[2],143.7 MEQ/L
same,TOTAL BILIRUBIN,[2],0.13 mg/dL
same,TOTAL PROTEIN,[2],5.7 G/DL
same,URIC ACID,[2],1.7 mg/dL
same,ABSOLUTE BASOPHIL,[3],0 CELLS/uL
same,ABSOLUTE EOSINOPHIL,[3],148.67 CELLS/uL
same,ABSOLUTE LYMPHOCYTE,[3],18945 CELLS/uL
same,ABSOLUTE MONOCYTE,[3],0 CELLS/uL
same,ABSOLUTE SEGMENTED NEUTROPHIL,[3],1139.67 CELLS/uL
same,BASOPHIL,[3],0%
same,EOSINOPHIL,[3],0.67%
same,ERYTHROCYTE COUNT,[3],5.75 x10E6/uL
same,HEMATOCRIT,[3],35.27%
same,HEMOGLOBIN,[3],13.97 G/DL
same,LEUKOCYTE COUNT,[3],20.23 x10E3/uL
same,LYMPHOCYTE,[3],93.67%
same,MEAN CORPUSCULAR HEMOGLOBIN,[3],24.3 pg
same,MEAN CORPUSCULAR HEMOGLOBIN CONCENTRATION,[3],39.6 G/DL
same,MEAN CORPUSCULAR VOLUME,[3],61.33 fL
same,MONOCYTE,[3],0%
same,NEUTROPHIL,[3],5.67%
same,NUCLEATED RED BLOOD CELLS,[3],0 /100WBC
same,PLATELET COUNT,[3],1362 x10E3/uL
same,ALANINE AMINOTRANSFERASE,[3],67 u/L
same,ALBUMIN,[3],4.2 G/DL
same,ALKALINE PHOSPHATASE,[3],356 u/L
same,ASPARTATE AMINOTRANSFERASE,[3],78 u/L
same,BLOOD UREA NITROGEN,[3],17.67 mg/dL
same,CARBON DIOXIDE,[3],26 mmol/L
same,CHLORIDE,[3],102.67 MEQ/L
same,CHOLESTEROL,[3],75.33 mg/dL
same,CREATINE PHOSPHOKINASE,[3],220.67 u/L
same,CREATININE,[3],0.15 mg/dL
same,GLUCOSE,[3],159.67 mg/dL
same,LACTATE DEHYDROGENASE,[3],104 u/L
same,LIPASE,[3],9.33 u/L
same,PHOSPHORUS,[3],11.63 mg/dL
same,POTASSIUM,[3],6.63 MEQ/L
same,SODIUM,[3],144.07 MEQ/L
same,TOTAL BILIRUBIN,[3],0.13 mg/dL
same,TOTAL PROTEIN,[3],6.17 G/DL
same,URIC ACID,[3],2 mg/dL
